Laboratory results: patent US12097200B2, “Combination of BI853520 with chemotherapeutic drugs” (INXMED (NANJING) CO., LTD., priority 2020, dated 2024)
“And” between values parts separate entries of the source, which are not always exact repeats. Equal entries are not always repeated.

How the values were obtained:
[1] = test system: CTG-1395; experiment: Antitumor activity in ovarian cancer PDX model CTG-1395; assay type: in vivo, mouse; details: 33 days until end of test, doses as Table 3
Procedure: (§3) Body weights (at start of dosing) were approximately 20 grams. […] Immunocompromised female mice were housed in HEPA ventilated cages (Innocage® IVC, Innovive USA) at 68-74° F. (20-23° C.) and 30-70% humidity under a 12-hour light/12-hour dark cycle. […] Animals with >10% body weight loss compared to day 0 received DietAel 76A (ClearH2O®, Portland, ME) for free. There were 3 mice in each group.
(§4) Mice were implanted with tumor cells from the ChampionsTumorGraft® ovarian model, which was established from patients previously treated with platinum-based therapy. After tumors reached 1000-1500 mm^3, they were collected, and tumor fragments SCs were implanted in the left flank of female pre-study mice. Each study animal was implanted with a specific passage batch. Tumor volume was measured twice a week with calipers to monitor tumor growth, and tumor volume (TV) was calculated using the formula (0.52×[length×width^2]). […] After initiation of dosing, animals were weighed daily using a digital scale and TV was measured twice weekly. […]
(§5) Inhibitory effect on tumor growth was determined by calculating TGI (100%×[1−(final MTV−initial MTV of the treatment group)/(final MTV−initial MTV of the control group)]). […]
(§6) CR: no TV could be detected (<4×4 mm^2), in 2 consecutive measurements […]

[2] = test system: A2780 cells; experiment: Antitumor activity in mouse model of human ovarian cancer (A2780 xenograft); assay type: in vivo
Excerpt: (§1) For tumor volume, absolute values were used.
(§2) Appropriate statistical methods were used for evaluation.
A2780 cells harboring PTEN gene mutations were obtained from ECACC (93112519).

[3] = test system: CTG-1166; experiment: Antitumor activity in ChampionsTumorGraft PDX ovarian cancer model CTG-1166
Procedure: as §3
Mice were implanted with tumor cells from the ChampionsTumorGraft® ovarian model, which was established from patients previously treated with platinum-based therapy. After tumors reached 1000-1500 mm^3, they were collected, and tumor fragments SCs were implanted in the left flank of female pre-study mice. Each study animal was implanted with a specific passage batch. Tumor volume was measured twice a week with calipers to monitor tumor growth, and tumor volume (TV) was calculated using the formula (0.52×[length×width^2]). When TV reached approximately 250-350 mm^3 (average 300 mm^3), animals were matched to tumor size and assigned to the control or treatment groups (study mice) and dosing started on day 0. After initiation of dosing, animals were weighed daily using a digital scale and TV was measured twice weekly. The study was terminated when the mean tumor volume in the control group reached approximately 1500 mm^3 or until day 60. In some models, the study was extended beyond Day 60 and dosing was also extended to the end of the study. Individual animals could be removed from the study when tumor volume reaches approximately 1500 mm^3.
Control 1: 0.5% Natrosol; control 2: 5% sterile glucose.
The control group for oral administration was 0.5% Natrosol. The control group for intravenous administration was 5% sterile glucose.
Carboplatin was a pre-formulated 10 mg/mL stock solution. PLD was a pre-formulated 2 mg/mL stock solution. Paclitaxel was a pre-formulated 6 mg/mL stock solution. These standard chemotherapeutic drugs were provided by Champions.
Data for each group, including body weight for each animal and mean body weight, were recorded, and the percentage change in mean body weight (% vD0) for each group relative to Day 0 was recorded, and the % vD0 was plotted at the completion of the study.
Animal deaths were recorded daily and determined as drug-related (D), technical (T), tumor-related (B), or unknown (U) based on weight loss and by visual inspection. […] The maximum mean % vD0 (body weight nadir) for each treatment group was reported at the end of the study.
Inhibitory effect on tumor growth was determined by calculating TGI (100%×[1−(final MTV−initial MTV of the treatment group)/(final MTV−initial MTV of the control group)]). Treatment was started on day 0. Tumor volumes in the treatment group were compared with those in the control group on the day the study was completed.
Other endpoints used to assess efficacy included number of CR, PR and TFS. PR and TFS were considered to exclude CR.
PR: TV≤30% of TV on day 0, in 2 consecutive measurements
CR: no TV could be detected (<4×4 mm^2), in 2 consecutive measurements
TFS: CR that persisted until the study was completed
Data were used for statistical analysis at the end of the study. Statistical comparisons of tumor volumes were performed using one-way analysis of variance followed by Newman-Keuls multiple comparison test to compare differences between all groups. Selected endpoints included as many groups as possible and as many animals per group as possible.
Tumor volumes from animals removed early due to tumor volume ≥1500 mm^3 were carried forward for analysis, but not more than 4 consecutive measurement time points.

[4] = test system: CTG-1433; experiment: Antitumor activity in ovarian cancer PDX model CTG-1433; assay type: in vivo, mouse; details: CTG-1433 (carboplatin and paclitaxel-resistant); 49 days until end of test; doses as Table 3
Procedure: as §3, §4, §5, §6

[5] = test system: CTG-0257; experiment: Antitumor activity in ovarian cancer PDX model CTG-0257; assay type: in vivo, mouse; details: 30 days until end of test, doses as Table 3
Procedure: as §3, §4, §5, §6

[6] = test system: CTG-1627; experiment: Antitumor activity in ovarian cancer PDX model CTG-1627; assay type: in vivo, mouse; details: 28 days until end of test, doses as Table 3
Procedure: as §3, §4, §5, §6

[7] = test system: KYSE-270 cells; experiment: Antitumor activity in mouse xenograft model of human esophageal cancer (KYSE-270); assay type: in vivo; details: KYSE-270 xenograft, combination of both
Excerpt: as §1, §2
Mice were approximately 8-10 weeks old.
KYSE-270 was a cell line for esophageal cancer (Public Health England, Cat. No. 94072021).

[8] = test system: TOV-21G cells; experiment: Antitumor activity in mouse model of human ovarian cancer (TOV-21G xenograft); assay type: in vivo; details: combination of both
Excerpt: as §1, §2
TOV-21G cells harboring KRAS and PIK3CA gene mutations were obtained from ATCC (CRL-11730).

[9] = test system: CTG-1427; experiment: Antitumor activity in ovarian cancer PDX model CTG-1427; assay type: in vivo, mouse; details: 42 days until end of test, doses as Table 3
Procedure: as §3, §4, §5, §6

[10] = test system: CTG-1180; experiment: Antitumor activity in ovarian cancer PDX model CTG-1180; assay type: in vivo, mouse; details: CTG-1180 (carboplatin and paclitaxel-resistant); 42 days until end of test; doses as Table 3
Procedure: as §3, §4, §5, §6

[11] = test system: CTG-1086; experiment: Antitumor activity in ovarian cancer PDX model CTG-1086; assay type: in vivo, mouse; details: 28 days until end of test, doses as Table 3
Procedure: as §3, §4, §5, §6

[12] = test system: CTG-1624; experiment: Antitumor activity in ovarian cancer PDX model CTG-1624; assay type: in vivo, mouse; details: 38 days until end of test, doses as Table 3
Procedure: as §3, §4, §5, §6

[13] = test system: NCI-H520 cells; details: NCI-H520 xenograft, day 22, combination of both
Procedure: Mice were approximately 6 weeks old. There were 5 mice in each group.
The cell concentration of the culture was maintained between 8×10^6 to 12×10^7 cells/tissue culture flask.
Cisplatin was dissolved in 0.9% saline.
Statistical evaluation was performed using the Student's t-test function in Microsoft Excel, utilizing a two-tailed distribution and a two-sample equal variance type.

[14] = test system: CTG-1498; experiment: Antitumor activity in ovarian cancer PDX model CTG-1498; assay type: in vivo, mouse; details: CTG-1498 (carboplatin and paclitaxel-resistant); 98 days until end of test; doses as Table 3
Procedure: as §3, §4, §5, §6

[15] = test system: CTG-1301; experiment: Antitumor activity in ovarian cancer PDX model CTG-1301; assay type: in vivo, mouse; details: CTG-1301 (carboplatin and paclitaxel-resistant); 38 days until end of test; doses as Table 3
Procedure: as §3, §4, §5, §6

[16] = test system: CTG-0791; experiment: Antitumor activity in ovarian cancer PDX model CTG-0791; assay type: in vivo, mouse; details: CTG-0791 (carboplatin and paclitaxel-resistant); 35 days until end of test; doses as Table 3
Procedure: as §3, §4, §5, §6

[17] = test system: CTG-0958; experiment: Antitumor activity in ovarian cancer PDX model CTG-0958; assay type: in vivo, mouse; details: 52 days until end of test, doses as Table 3
Procedure: as §3, §4, §5, §6

[18] = test system: CTG-0868; experiment: Antitumor activity in ovarian cancer PDX model CTG-0868; assay type: in vivo, mouse; details: 25 days until end of test, doses as Table 3
Procedure: as §3, §4, §5, §6

[19] = test system: CTG-1602; experiment: Antitumor activity in ovarian cancer PDX model CTG-1602; assay type: in vivo, mouse; details: 14 days until end of test, doses as Table 3
Procedure: as §3, §4, §5, §6

[20] = test system: SKOV-3 cells; experiment: Antitumor activity in mouse model of human ovarian cancer (SKOV-3 xenograft); assay type: in vivo; details: combination of both
Excerpt: as §1, §2
SKOV-3 cells harboring CDKN2, MLH1, PIK3CA and TP53 gene mutations were obtained from ATCC (HTB-77).
PLD (Doxil) was purchased from Johnson & Johnson and dissolved in sterile 5% glucose solution.
Treatment was initiated when the median tumor volume was between 70 and 110 mm^3.

[21] = test system: HS 746T cells; experiment: Antitumor activity in mouse xenograft model of human gastric cancer (HS 746T); assay type: in vivo; details: HS 746T xenograft, combination of both
Excerpt: as §1, §2
HS 746T: Approximately 6 week old mice.

[22] = test system: CTG-1677; experiment: Antitumor activity in ovarian cancer PDX model CTG-1677; assay type: in vivo, mouse; details: 32 days until end of test, doses as Table 3
Procedure: as §3, §4, §5, §6

[23] = test system: CTG-1649; experiment: Antitumor activity in ovarian cancer PDX model CTG-1649; assay type: in vivo, mouse; details: 40 days until end of test, doses as Table 3
Procedure: as §3, §4, §5, §6

[24] = CTG-1166 PDX, Day 0-56, n=3 per group, doses as Table 4
[25] = CTG-1166 PDX, day 17, BI 853520 50 mg/kg PO BID, PLD 3 mg/kg IV q7d, carboplatin 25 mg/kg IP q7dx3 + paclitaxel 20 mg/kg IV q7dx3
[26] = BI 853520 50 mg/kg qd, paclitaxel 10 mg/kg q7d
[27] = day 22, BI 853520 12.5 mg/kg qd by gavage, PLD 1 mg/kg q7d i.v.
[28] = BI 853520 50 mg/kg qd, cisplatin 5 mg/kg IP q7d
[29] = BI 853520 50 mg/kg qd, docetaxel 10 mg/kg q7d

In the case of `COc1cc(C(=O)NC2CCN(C)CC2)c(F)cc1Nc1ncc(C(F)(F)F)c(Oc2cccc3c2C(=O)N(C)C3)n1` [BI 853520, 2-fluoro-5-methoxy-4-[(4-(2-methyl-3-oxo-2,3-dihydro-1H-isoindole-4-oxy)-5-trifluoromethyl-pyrimidin-2-yl)amino]-N-(1-methyl-piperidin-4-yl)benzamide], the “TGI (%)” value [1] is reported as 41%, the “Antitumor effect (in words)” value ([2]; BI 853520 25 and 50 mg/kg qd, PLD 5 mg/kg q7d, combination 50 + 5 mg/kg) is reported as “efficacy of BI 853520 was observed at medium and high dose levels” and the TGI ([2]; day 1 to day 15, BI 853520 12.5 mg/kg qd) is reported as 19%. It also gave a TGI ([2]; day 1 to day 15, BI 853520 25 mg/kg qd) of 83%, a TGI ([2]; day 1 to day 15, BI 853520 50 mg/kg qd, PLD 5 mg/kg q7d, combination of both) of 85% and a Median tumor volume ([2]; day 15, BI 853520 12.5 mg/kg qd by gavage) of 968 mm^3. For the same molecule, the “Tumor regression (animals with regression/animals in group)” value ([2]; day 15, BI 853520 12.5 mg/kg qd, 12.5 mg/kg) was “no tumor regression and 0/10”, the Median tumor volume ([2]; day 15, BI 853520 25 mg/kg qd by gavage) was 284 mm^3 and the “Tumor regression (animals with regression/animals in group)” value ([2]; day 15, BI 853520 25 mg/kg qd, 25 mg/kg) was “no tumor regression and 0/10”. For the same molecule, the Median tumor volume ([2]; day 15, BI 853520 50 mg/kg qd by gavage, PLD 5 mg/kg q7d i.v., combination of both) was 262 mm^3, the “Tumor regression (animals with regression/animals in group)” value ([2]; day 15, BI 853520 50 mg/kg qd, PLD 5 mg/kg q7d, combination of both) was “no tumor regression and 0/10” and the “#CR (complete responses)” value [3, 24] was 0/0/0. For the same molecule, the “#PR (partial responses)” value [3, 24] was 0/0/0, the “#TFS (tumor-free survivors)” value [3, 24] was 0/0/0 and the “Body weight (day 17) % vD0” value ([3]; CTG-1166 PDX, day 17, change in mean body weight relative to Day 0) was 4.0%. For the same molecule, the “% TGI” value [3, 25] was 89%, the “Tumor volume (day 17) Mean ± SEM” value [3, 25] was 366 ± 78 mm^3 and the “Dead Total” value ([3]; CTG-1166 PDX, animal deaths, n=3 per group) was 0. The “Body weight nadir Day” value ([3]; CTG-1166 PDX, day of body weight nadir) was 13, the “Antitumor activity (in words)” value ([3]; CTG-1166 PDX, doses as Table 4) was “significant inhibitory effect on tumor growth” and the “Body weight (day 17) Mean ± SEM” value ([3]; mouse, in vivo) was 26.7 ± 0.4 g. The “Body weight nadir % vD0(max)” value ([3]; mouse, in vivo, po, 50 mg/kg) was −0.7%, the “TGI (%)” value [4] was 61% and the “TGI (%)” value [5] was 67%. The “TGI (%)” value [6] was 50%, the Median tumor volume ([7]; day 13, BI 853520 50 mg/kg qd by gavage, paclitaxel 10 mg/kg q7d i.v.) was 126 mm^3 and the TGI ([7]; day 13, BI 853520 50 mg/kg qd, paclitaxel 10 mg/kg q7d) was 106%. The “Antitumor effect (in words)” value [7, 26] was “had inhibitory effect on tumor growth”, the “Change in median body weight” value [7, 26] was 2.8% and the “Tumor regression (animals with regression/animals in group)” value [7, 26] was 6 of 7 and 6/7. For the same molecule, the “Antitumor effect (in words)” value ([8]; BI 853520 12.5 mg/kg qd, PLD 1 mg/kg q7d) was “good efficacy at low doses”, the TGI ([8]; day 1 to day 22, median tumor volumes, BI 853520 12.5 mg/kg qd, PLD 1 mg/kg q7d) was 67% and the Median tumor volume [8, 27] was 271 mm^3. The “Tumor regression (animals with regression/animals in group)” value [8, 27] was “no tumor regression and 0/7”, the “TGI (%)” value [9] was 59% and the “TGI (%)” value [10] was 33%. For the same molecule, the “TGI (%)” value [11] was 39%, the “TGI (%)” value [12] was 22% and the Median tumor volume ([13]; BI 853520 50 mg/kg qd by gavage, cisplatin 5 mg/kg IP once a week) was 352 mm^3. For the same molecule, the “Median TGI” value [13, 28] was 54%, the “Tumor regression (animals with regression/animals in group)” value [13, 28] was 0/7 and the “TGI (%)” value [14] was 128%. The “TGI (%)” value [15] was 43%, the “TGI (%)” value [16] was −21% and the “TGI (%)” value [17] was 99%. The “TGI (%)” value [18] was 54%, the “TGI (%)” value [19] was −1% and the TGI ([20]; day 1 to day 22, median tumor volumes, BI 853520 50 mg/kg qd, PLD 5 mg/kg q7d) was 57%. For the same molecule, the Median tumor volume ([20]; day 22, BI 853520 50 mg/kg qd by gavage, PLD 5 mg/kg q7d i.v.) was 306 mm^3, the “Tumor regression (animals with regression/animals in group)” value ([20]; day 22, BI 853520 50 mg/kg qd, PLD 5 mg/kg q7d) was “no tumor regression and 0/7” and the Median tumor volume ([21]; day 24 (withdrawal on day 28), BI 853520 50 mg/kg qd by gavage, docetaxel 10 mg/kg q7d i.v.) was 229 mm^3. For the same molecule, the “Antitumor effect (in words)” value [21, 29] was “had inhibitory effect”, the “Change in median body weight” value [21, 29] was 7.3% and the TGI [21, 29] was 93%. The “Tumor regression (animals with regression/animals in group)” value [21, 29] was 1 of 8 and 1/8, the “TGI (%)” value [22] was 51% and the “TGI (%)” value [23] was 71%.
